Entries after “also recorded” stand apart in the source; their conditions may differ. Where two headings read alike, the source gives them in different places.
Tested on: hippocampal slices
Test: Hippocampal slice cultures and induction of LTP (immunohistochemistry of LTP markers); for pCREB: key: ±: no change in the activation status; ++++: a qualitative maximal activation; ++: a half-maximum activation; −: a reduction of activation; for pMAPK: key: ±: no change in the activation status; ++++: a qualitative maximal activation; ++: a half-maximum activation; −: a reduction of activation
Assay type: cell-based, Wistar rats
Details: for pCREB / pMAPK: relative activation vs vehicle treated sister cultures, 15 min treatment after 48 h in culture; for AMPA rec. (AMPA receptors on the cell surface): 15 min treatment
Procedure: Seven-day-old Wistar rats were decapitated using a guillotine. In less than 1 minute the skull was opened, the cerebral hemispheres were separated and transferred and both hippocampi were dissected and transferred into ice cold buffer containing 137 mM NaCl, 5 mM KCl, 0.85 mM Na2HPO4, 1.5 mM CaCl2, 0.66 mM KH2PO4, 0.28 mM MgSO4, 1 mM MgCl2, 2.7 mM NaHCO3, 1 mM Kynurenic acid and 0.6% D-glucose. Transversal hippocampal slices (typically 400 μm) were prepared using a vibrating blade microtome (VT1200S; Leica Microsystems (Schweiz) AG, Heerbrugg, Switzerland) in the same buffer. Hippocampal slices were individually placed on a membrane insert (Millicell Culture Plate Inserts, 0.4 μm) and cultivated at 35° C., 5% CO2, 95% humidity in a medium containing a 1:1 mixture of BME and MEM (both from Invitrogen) containing 25% heat-inactivated horse serum, 1× GlutaMAX, 1× Penicillin/Streptomycin, 0.6% glucose and 1 mM Kynurenic acid (Stoppini et al. 1991 J Neurosci Methods 37(2):173-82). […] Sarcosine (100 μM) and ALX5407 (20 nM) were used routinely as positive controls. […] After the treatments, sections were washed and fixed for immunohistochemistry. Markers of enhanced synaptic activity, normally associated with LTP, representing an in vitro (or ex vivo) model of learning and memory, were quantified (see Table 1, below). Table 1. Relative activation of synaptic markers after treatment with both extracts and some of their constituent compounds in comparison to sister cultures treated with buffer. The activation of any of these markers (or a combination thereof) is observed in classical LTP experiments. Data are compared to vehicle treated sections, which is set as 100%.

[1] = class symbol, vs vehicle treated sister cultures
[2] = compared to vehicle treated sections set as 100%

Compound	LTP-inducing activity (biochemical markers typical for LTP)	pCREB	pMAPK	AMPA rec. (AMPA receptors on the cell surface) [1]	LTP-inducing activity (biochemical markers typical for LTP) (listed as p-cemene)	AMPA rec. (AMPA receptors on the cell surface) [2]
Caryophyllene	lack the LTP-inducing activity	±	±			
Cc1ccc(C(C)C)cc1 [P-Cymene]	induce activation of biochemical pathway leading to LTP induction	++	++++	±	induced biochemical markers typical for LTP	
NCC(=O)O [Glycine]		++	++			
Cc1ccc(C(C)C)c(O)c1 [Thymol]	induced biochemical markers typical for LTP; also recorded: induce activation of biochemical pathway leading to LTP induction	++++				250-767%
C=CC(C)(O)CCC=C(C)C (centres unmarked) [Linalool]	lack the LTP-inducing activity	±	±	±		
Cc1ccc(C(C)C)cc1O [Carvacrol]	lack the LTP-inducing activity		−			0-176%
